Test results published in patent publication US4297486A, “Aminoglycoside antibiotic G-367-1 and method for the production thereof” (Toyo Jozo Kabushiki Kaisha, priority 1979, dated 1981).
≈ marks a conversion by molar mass, not a printed value.

Assays:
[1] = test system: Bacillus subtilis ATCC 6633; assay: antimicrobial spectrum, MIC by agar dilution method; assay type: cell-based; conditions: ATCC6633, read-out: minimum inhibitory concentration, MIC
Source text: (§1) The antimicrobial spectrum (minimum inhibitory concentration, MIC) of G-367-1 by agar dilution method is as follows: […]

[2] = test system: Citrobacter freundii GN346; assay: as above; assay type: cell-based; conditions: read-out: minimum inhibitory concentration, MIC
Source text: as §1

[3] = test system: Enterobacter aerogenes 0655; assay: as above; assay type: cell-based; conditions: Klebsiella aerogenes, read-out: minimum inhibitory concentration, MIC
Source text: as §1

[4] = test system: Enterobacter cloacae GN366; assay: as above; assay type: cell-based; conditions: read-out: minimum inhibitory concentration, MIC
Source text: as §1

[5] = test system: Escheria coli W3630; assay: as above; assay type: cell-based; conditions: read-out: minimum inhibitory concentration, MIC
Source text: as §1

[6] = test system: Escherichia coli NIHJ-JC2; assay: as above; assay type: cell-based; conditions: NIHJJC2, read-out: minimum inhibitory concentration, MIC
Source text: as §1

[7] = test system: Klebsiella pneunonia ATCC 10031; assay: as above; assay type: cell-based; conditions: ATCC10031, read-out: minimum inhibitory concentration, MIC
Source text: as §1

[8] = test system: Proteus morganii 0239; assay: as above; assay type: cell-based; conditions: Morganella morganii, read-out: minimum inhibitory concentration, MIC
Source text: as §1

[9] = test system: Proteus rettgeri ACR; assay: as above; assay type: cell-based; conditions: Providencia rettgeri, read-out: minimum inhibitory concentration, MIC
Source text: as §1

[10] = test system: Pseudomonas aeruginosa 1946; assay: as above; assay type: cell-based; conditions: read-out: minimum inhibitory concentration, MIC
Source text: as §1

[11] = test system: Pseudomonas aeruginosa 2512; assay: as above; assay type: cell-based; conditions: read-out: minimum inhibitory concentration, MIC
Source text: as §1

[12] = test system: Pseudomonas aeruginosa IAM1095; assay: as above; assay type: cell-based; conditions: read-out: minimum inhibitory concentration, MIC
Source text: as §1

[13] = test system: Pseudomonas aeruginosa ML4561 RP4; assay: as above; assay type: cell-based; conditions: ML4561RP4, read-out: minimum inhibitory concentration, MIC
Source text: as §1

[14] = test system: Pseudomonas aeruginosa ML4561 Rms164-1; assay: as above; assay type: cell-based; conditions: ML4561RMS1641, read-out: minimum inhibitory concentration, MIC
Source text: as §1

[15] = test system: Pseudomonas aeruginosa ML4561 Rms166; assay: as above; assay type: cell-based; conditions: ML4561RMS166, read-out: minimum inhibitory concentration, MIC
Source text: as §1

[16] = test system: Pseudomonas aeruginosa ML4561; assay: as above; assay type: cell-based; conditions: read-out: minimum inhibitory concentration, MIC
Source text: as §1

[17] = test system: Pseudomonas maltophilia 1850; assay: as above; assay type: cell-based; conditions: Stenotrophomonas maltophilia, read-out: minimum inhibitory concentration, MIC
Source text: as §1

[18] = test system: Pseudomonas putida 1842; assay: as above; assay type: cell-based; conditions: read-out: minimum inhibitory concentration, MIC
Source text: as §1

[19] = test system: Salmonella enteritidis Gartner; assay: as above; assay type: cell-based; conditions: Salmonella enterica, read-out: minimum inhibitory concentration, MIC
Source text: as §1

[20] = test system: Serratia marcescens; assay: as above; assay type: cell-based; conditions: read-out: minimum inhibitory concentration, MIC
Source text: as §1

[21] = test system: Shigella sonnei E33; assay: as above; assay type: cell-based; conditions: read-out: minimum inhibitory concentration, MIC
Source text: as §1

[22] = test system: Staphylococcus aureus 0119; assay: as above; assay type: cell-based; conditions: read-out: minimum inhibitory concentration, MIC
Source text: as §1

[23] = test system: Staphylococcus aureus ATCC 6538P; assay: as above; assay type: cell-based; conditions: ATCC6538P, read-out: minimum inhibitory concentration, MIC
Source text: as §1

[24] = test system: Staphylococcus aureus MS 27; assay: as above; assay type: cell-based; conditions: MS27, read-out: minimum inhibitory concentration, MIC
Source text: as §1

[25] = test system: Staphylococcus epidermidis sp-al-1; assay: as above; assay type: cell-based; conditions: SPAL1, read-out: minimum inhibitory concentration, MIC
Source text: as §1

[26] = test system: Streptococcus pyogenes N.Y.5; assay: as above; assay type: cell-based; conditions: read-out: minimum inhibitory concentration, MIC
Source text: as §1

[27] = test system: Gram negative bacteria; assay: antibacterial effect against Gram negative bacteria; assay type: cell-based
Source text: as §1

[28] = Solubility; assay type: physicochemical

In the case of CNC1C(O)C(OC2C(N)CC(N)C(OC3OC(CN)=CCC3NC=O)C2O)OCC1(C)O (stereo not drawn) [G-367-1], the MIC [1] was 0.8 µg/mL (≈ 1.68 µM), the MIC [2] was 1.6 µg/mL (≈ 3.36 µM) and the MIC [3] was 1.6 µg/mL (≈ 3.36 µM). The MIC [4] was 1.6 µg/mL (≈ 3.36 µM), the MIC [5] was 1.6 µg/mL (≈ 3.36 µM) and the MIC [6] was 1.6 µg/mL (≈ 3.36 µM). For the same compound, the MIC [7] was 1.6 µg/mL (≈ 3.36 µM), the MIC [8] was 3.1 µg/mL (≈ 6.52 µM) and the MIC [9] was 3.1 µg/mL (≈ 6.52 µM). For the same compound, the MIC [10] was greater than 100 µg/mL, the MIC [11] was greater than 100 µg/mL and the MIC [12] was 25 µg/mL (≈ 52.6 µM). For the same compound, the MIC [13] was 12.5 µg/mL (≈ 26.3 µM), the MIC [14] was 50 µg/mL (≈ 105 µM) and the MIC [15] was greater than 100 µg/mL. The MIC [16] was 25 µg/mL (≈ 52.6 µM), the MIC [17] was greater than 100 µg/mL and the MIC [18] was greater than 100 µg/mL. It also gave an MIC [19] of 1.6 µg/mL (≈ 3.36 µM), an MIC [20] of 25 µg/mL (≈ 52.6 µM) and an MIC [21] of 1.6 µg/mL (≈ 3.36 µM). For the same compound, the MIC [22] was 12.5 µg/mL (≈ 26.3 µM), the MIC [23] was 6.3 µg/mL (≈ 13.2 µM) and the MIC [24] was 6.3 µg/mL (≈ 13.2 µM). For the same compound, the MIC [25] was 1.6 µg/mL (≈ 3.36 µM), the MIC [26] was 6.3 µg/mL (≈ 13.2 µM) and the antibacterial effect [27] was “strong antibacterial effect”. For the same compound, the Solubility ([28]; acetone) was “insoluble”, the Solubility ([28]; benzene) was “insoluble” and the Solubility ([28]; chloroform) was “insoluble”. For the same compound, the Solubility ([28]; ethyl acetate) was “insoluble”, the Solubility ([28]; methanol) was “soluble” and the Solubility ([28]; water) was “soluble”.
